Reference: US20080188503A1, “New Compounds II” (AstraZenaca AB, priority 2006, published 2008)

Target: T1, recombinant human GSK3β (Homo sapiens, UniProt P49841)
T1 construct: purchased Dundee University, UK
Test: GSK3β Scintillation Proximity Assay (ATP competition)
Type: biochemical
Conditions: recombinant human GSK3β SPA; 1 μM ATP, 1 μM biotinylated peptide substrate; Ki calculated with Km of ATP 20 μM
Description: Determination of ATP Competition in Scintillation Proximity GSK3β Assay.
GSK3β Scintillation Proximity Assay.
The competition experiments were carried out in duplicate with 10 different concentrations of the inhibitors in clear-bottom microtiter plates (Wallac, Finland). A biotinylated peptide substrate, Biotin-Ala-Ala-Glu-Glu-Leu-Asp-Ser-Arg-Ala-Gly-Ser(PO3H2)-Pro-Gln-Leu (AstraZeneca, Lund), was added at a final concentration of 1 μM in an assay buffer containing 1 mU recombinant human GSK3β (Dundee University, UK), 12 mM morpholinepropanesulfonic acid (MOPS), pH 7.0, 0.3 mM EDTA, 0.01% β-mercaptoethanol, 0.004% Brij 35 (a […] detergent), 0.5% glycerol and 0.5 μg BSA/25 μl. The reaction was initiated by the addition of 0.04 μCi [γ-^33P]ATP (Amersham, UK) and unlabelled ATP at a final concentration of 1 μM and assay volume of 25 μl. After incubation for 20 minutes at room temperature, each reaction was terminated by the addition of 25 μl stop solution containing 5 mM EDTA, 50 μM ATP, 0.1% Triton X-100 and 0.25 mg streptavidin coated Scintillation Proximity Assay (SPA) beads (Amersham, UK). After 6 hours the radioactivity was determined in a liquid scintillation counter (1450 MicroBeta Trilux, Wallac). The inhibition curves were analysed by non-linear regression using GraphPad Prism, USA. The Km value of ATP for GSK3β, used to calculate the inhibition constants (Ki) of the various compounds, was 20 μM.

T1 sequence (P49841 whole entry): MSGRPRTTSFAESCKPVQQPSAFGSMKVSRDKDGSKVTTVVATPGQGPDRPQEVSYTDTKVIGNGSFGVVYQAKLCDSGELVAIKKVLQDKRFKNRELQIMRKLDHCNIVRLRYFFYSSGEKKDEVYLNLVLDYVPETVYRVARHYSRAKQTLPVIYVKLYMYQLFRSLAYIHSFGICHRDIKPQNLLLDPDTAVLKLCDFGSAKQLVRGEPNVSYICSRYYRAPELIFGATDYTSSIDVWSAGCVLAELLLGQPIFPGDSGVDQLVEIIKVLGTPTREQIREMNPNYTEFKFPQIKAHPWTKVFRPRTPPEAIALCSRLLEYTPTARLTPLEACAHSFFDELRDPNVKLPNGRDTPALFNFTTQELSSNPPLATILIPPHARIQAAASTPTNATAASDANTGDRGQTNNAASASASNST

| Ki | SMILES |
| --- | --- |
| 2600 nM | Cc1ncc(-c2nc(Nc3ccc(C(F)(F)F)cn3)ncc2F)n1C1CCOCC1 [Example 4, 5-Fluoro-4-[2-methyl-1-(tetrahydro-2H-pyran-4-yl)-1H-imidazol-5-yl]-N-[5-(trifluoromethyl)pyridin-2-yl]pyrimidin-2-amine] |
| 37 nM | Cc1ncc(-c2nc(Nc3ccc(CNCc4ccc(Cl)nc4)nc3)ncc2F)n1C1CCOCC1 [Example 20, N-[6-({[(6-Chloropyridin-3-yl)methyl]amino}methyl)pyridin-3-yl]-5-fluoro-4-[2-methyl-1-(tetrahydro-2H-pyran-4-yl)-1H-imidazol-5-yl]pyrimidin-2-amine] |
| 1300 nM | COC[C@@H]1CCCN1Cc1ccc(Nc2ncc(F)c(-c3cnc(C)n3C3CCOCC3)n2)cn1 [Example 15, 5-Fluoro-N-(6-{[(2S)-2-(methoxymethyl)pyrrolidin-1-yl]methyl}pyridin-3-yl)-4-[2-methyl-1-(tetrahydro-2H-pyran-4-yl)-1H-imidazol-5-yl]pyrimidin-2-amine] |
| 150 nM | COC1CCN(Cc2ccc(Nc3ncc(F)c(-c4cnc(C)n4C4CCOCC4)n3)cn2)CC1 [Example 22, 5-Fluoro-N-{6-[(4-methoxypiperidin-1-yl)methyl]pyridin-3-yl}-4-[2-methyl-1-(tetrahydro-2H-pyran-4-yl)-1H-imidazol-5-yl]pyrimidin-2-amine] |
| 80 nM | Cc1ncc(-c2nc(NC3CCN(S(=O)(=O)Cc4ccccc4)CC3)ncc2F)n1C1CCOCC1 [Example 44, N-[1-(Benzylsulfonyl)piperidin-4-yl]-5-fluoro-4-[2-methyl-1-(tetrahydro-2H-pyran-4-yl)-1H-imidazol-5-yl]pyrimidin-2-amine] |
| 230 nM | Cc1ncc(-c2nc(Nc3ccc(CNCCCN4CCCC4=O)nc3)ncc2F)n1C1CCOCC1 [Example 24, 1-[3-({[5-({5-Fluoro-4-[2-methyl-1-(tetrahydro-2H-pyran-4-yl)-1H-imidazol-5-yl]pyrimidin-2-yl}amino)pyridin-2-yl]methyl}amino)propyl]pyrrolidin-2-one] |
| 210 nM | Cc1ncc(-c2nc(Nc3ccc(CN4CCC(N5CCCC5)CC4)nc3)ncc2F)n1C1CCOCC1 [Example 25, 5-Fluoro-4-[2-methyl-1-(tetrahydro-2H-pyran-4-yl)-1H-imidazol-5-yl]-N-{6-[(4 pyrrolidin-1-ylpiperidin-1-yl)methyl]pyridin-3-yl}pyrimidin-2-amine] |
| 200 nM | Cc1ncc(-c2nc(Nc3cncc4ccccc34)ncc2F)n1C1CCOCC1 [Example 30, {5-Fluoro-4-[2-methyl-3-(tetrahydro-pyran-4-yl)-3H-imidazol-4-yl]-pyrimidin-2-yl}-isoquinolin-4-yl-amine] |
| 31 nM | Cc1ncc(-c2nc(NC3CCN(C(=O)OCc4ccccc4)CC3)ncc2F)n1C1CCOCC1 [Example 40, Benzyl 4-({5-fluoro-4-[2-methyl-1-(tetrahydro-2H-pyran-4-yl)-1H-imidazol-5-yl]pyrimidin-2-yl}amino)piperidine-1-carboxylate] |
| 49 nM | CC(=O)c1cncc(Nc2ncc(F)c(-c3cnc(C)n3C3CCOCC3)n2)c1 [Example 2, 1-[5-({5-Fluoro-4-[2-methyl-1-(tetrahydro-2H-pyran-4-yl)-1H-imidazol-5-yl]pyrimidin-2-yl}amino)pyridin-3-yl]ethanone] |
